Legend:
bamyardgrass = test: Test B flood test barnyardgrass; assay type: in vivo, Echinochloa crus-galli
Method in brief: (§1)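 Plants were grown to the 2-leaf stage before treatment with test chemical, then held in a greenhouse for twelve to sixteen days. Injury was visually rated against untreated controls on a 0–10 scale, where 0 is no effect and 10 is complete control.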

morningglory = test: Test B pre/postemergence morningglory; assay type: in vivo, Ipomoea hederacea
Method in brief: (§2)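 Response is a visual 0-to-10 score relative to untreated plants, where 0 means no effect and 10 means complete control, taken twelve to sixteen days after application. Treatments went onto soil at planting and onto foliage of 1- to 4-leaf plants, using a surfactant-containing non-phytotoxic solvent.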

surinam grass = test: Test B pre/postemergence surinam grass; assay type: in vivo, Brachiaria decumbens
Method in brief: as §2

blackgrass = test: Test B pre/postemergence blackgrass; assay type: in vivo, Alopecurus myosuroides
Method in brief: as §2

corn = test: Test B pre/postemergence corn; assay type: in vivo, Zea mays
Method in brief: as §2

wheat = test: Test B pre/postemergence wheat; assay type: in vivo, Triticum aestivum
Method in brief: as §2

duck salad = test: Test B flood test duck salad; assay type: in vivo, Heteranthera limosa
Method in brief: as §1

soybean = test: Test B pre/postemergence soybean; assay type: in vivo, Glycine max
Method in brief: as §2

rice = test: Test B flood test rice; assay type: in vivo, Oryza sativa
Method in brief: as §1

purple nutsedge = test: Test B pre/postemergence purple nutsedge; assay type: in vivo, Cyperus rotundus
Method in brief: as §2

wild oat = test: Test B pre/postemergence wild oat; assay type: in vivo, Avena fatua
Method in brief: as §2

smallflower flatsedge = test: Test B flood test smallflower flatsedge; assay type: in vivo, Cyperus difformis
Method in brief: as §1

giant foxtail = test: Test B pre/postemergence giant foxtail; assay type: in vivo, Setaria faberii
Method in brief: as §2

velvetleaf = test: Test B pre/postemergence velvetleaf; assay type: in vivo, Abutilon theophrasti
Method in brief: as §2

bedstraw = test: Test B pre/postemergence bedstraw; assay type: in vivo, Galium aparine; conditions: Postemergence; for Plant response rating, Bedstraw: scale 0 to 10, 0 is no effect, 10 is complete control; for Bedstraw plant response rating: scale of 0 to 10 where 0 is no effect and 10 is complete control
Method in brief: as §2

rape = test: Test B pre/postemergence rape; assay type: in vivo, Brassica napus
Method in brief: as §2

pigweed = test: Test B pre/postemergence pigweed; assay type: in vivo, Amaranthus retroflexus
Method in brief: as §2

sugar beet = test: Test B pre/postemergence sugar beet; assay type: in vivo, Beta vulgaris
Method in brief: as §2

crabgrass = test: Test B pre/postemergence crabgrass; assay type: in vivo, Digitaria sanguinalis
Method in brief: as §2

cocklebur = test: Test B pre/postemergence cocklebur; assay type: in vivo, Xanthium strumarium
Method in brief: as §2

[1] = Rate 62 g/ha, flood test species, Pre-emergence, visual evaluation after twelve to sixteen days
[2] = Rate 125 g/ha, under heading Pre-emergence, flood test species, visual evaluation after twelve to sixteen days
[3] = Rate 250 g/ha, Pre-emergence, flood-test species, scale 0 to 10, 0 is no effect, 10 is complete control
[4] = Rate 500 g/ha, Pre-emergence, flood test species, scale 0 to 10 (0 no effect, 10 complete control)
[5] = Postemergence, Rate 250 g/ha, scale 0 to 10, 0 is no effect, 10 is complete control
[6] = Postemergence, Rate 500 g/ha, scale of 0 to 10 where 0 is no effect and 10 is complete control
[7] = Preemergence, Rate 62 g/ha, scale 0 to 10 (0 no effect, 10 complete control)
[8] = Preemergence, Rate 125 g/ha, scale of 0 to 10 where 0 is no effect and 10 is complete control
[9] = Preemergence, Rate 250 g/ha, scale 0 to 10, 0 is no effect, 10 is complete control
[10] = Preemergence, Rate 500 g/ha, scale 0 to 10, 0 is no effect, 10 is complete control
[11] = Postemergence, Rate 125 g/ha, scale 0 to 10, 0 is no effect, 10 is complete control
[12] = Preemergence, Rate 250 g/ha, scale of 0 to 10 where 0 is no effect and 10 is complete control
[13] = Rate 62 g/ha, Postemergence, scale of 0 to 10 where 0 is no effect and 10 is complete control

CC(C)N(C(=O)n1oc(=O)n(C(C)CCl)c1=O)c1ccc(F)cc1F (centres unmarked) [Compound 408]
7: Plant response rating, Morningglory (morningglory; [5]) | Morningglory plant response rating (morningglory; [6]) | Morningglory plant response rating (morningglory; [10]) | B. signalgrass plant response rating (surinam grass; Preemergence, Rate 500 g/ha, scale of 0 to 10 where 0 is no effect and 10 is complete control) | Wheat plant response rating (wheat; [10]) | Velvetleaf plant response rating (velvetleaf; [9]) | Velvetleaf plant response rating (velvetleaf; [10]) | Redroot pigweed plant response rating (pigweed; [6])
0: Plant response rating, Barnyardgrass (0 to 10 scale, 0 is no effect, 10 is complete control) (bamyardgrass; [1]) | Barnyardgrass plant response rating (0 to 10 scale, 0 is no effect, 10 is complete control) (bamyardgrass; [2]) | Barnyardgrass plant response rating (bamyardgrass; [3]) | Barnyardgrass plant response rating (bamyardgrass; [4]) | Plant response rating, Morningglory (morningglory; [7]) | Plant response rating, Morningglory (morningglory; [8]) | Morningglory plant response rating (morningglory; [9]) | Plant response rating, B. signalgrass (surinam grass; [11]) | Plant response rating, B. signalgrass (surinam grass; [5]) | Plant response rating, B. signalgrass (surinam grass; [7]) | B. signalgrass plant response rating (surinam grass; [13]) | Blackgrass plant response rating (blackgrass; [13]) | Plant response rating, Corn (corn; [11]) | Plant response rating, Corn (corn; [5]) | Corn plant response rating (corn; [6]) | Plant response rating, Corn (corn; [7]) | Corn plant response rating (corn; [13]) | Plant response rating, Wheat (wheat; [7]) | Plant response rating, Wheat (wheat; [8]) | Plant response rating, Ducksalad (0 to 10 scale, 0 is no effect, 10 is complete control) (duck salad; [1]) | Ducksalad plant response rating (0 to 10 scale, 0 is no effect, 10 is complete control) (duck salad; [2]) | Ducksalad plant response rating (duck salad; [3]) | Ducksalad plant response rating (duck salad; [4]) | Plant response rating, Soybean (soybean; [7]) | Plant response rating, Soybean (soybean; [8]) | Soybean plant response rating (soybean; [9]) | Soybean plant response rating (soybean; [10]) | Plant response rating, Rice (0 to 10 scale, 0 is no effect, 10 is complete control) (rice; [1]) | Rice plant response rating (0 to 10 scale, 0 is no effect, 10 is complete control) (rice; [2]) | Rice plant response rating (rice; [3]) | Rice plant response rating (rice; [4]) | Plant response rating, Nutsedge (purple nutsedge; [7]) | Plant response rating, Nutsedge (purple nutsedge; [8]) | Nutsedge plant response rating (purple nutsedge; [9]) | Nutsedge plant response rating (purple nutsedge; [10]) | Plant response rating, Wild oats (wild oat; [7]) | Plant response rating, S. Flatsedge (0 to 10 scale, 0 is no effect, 10 is complete control) (smallflower flatsedge; [1]) | S. Flatsedge plant response rating (0 to 10 scale, 0 is no effect, 10 is complete control) (smallflower flatsedge; [2]) | S. Flatsedge plant response rating (smallflower flatsedge; [3]) | S. Flatsedge plant response rating (smallflower flatsedge; [4]) | Plant response rating, Velvetleaf (velvetleaf; [5]) | Plant response rating, Velvetleaf (velvetleaf; [7]) | Plant response rating, Rape (rape; [7]) | Plant response rating, Rape (rape; [8]) | Plant response rating, Redroot pigweed (pigweed; [5]) | Plant response rating, Sugarbeets (sugar beet; [5]) | Plant response rating, Cocklebur (cocklebur; [11]) | Plant response rating, Cocklebur (cocklebur; [5]) | Plant response rating, Cocklebur (cocklebur; [7]) | Plant response rating, Cocklebur (cocklebur; [8]) | Cocklebur plant response rating (cocklebur; [9]) | Cocklebur plant response rating (cocklebur; [10]) | Cocklebur plant response rating (cocklebur; [13])
10: Blackgrass plant response rating (blackgrass; [6]) | Blackgrass plant response rating (blackgrass; [10]) | Plant response rating, Giant foxtail (giant foxtail; [7]) | Plant response rating, Giant foxtail (giant foxtail; [8]) | Giant foxtail plant response rating (giant foxtail; [9]) | Giant foxtail plant response rating (giant foxtail; [10]) | Redroot pigweed plant response rating (pigweed; [9]) | Redroot pigweed plant response rating (pigweed; [10]) | Plant response rating, Crabgrass (crabgrass; [8]) | Crabgrass plant response rating (crabgrass; [9]) | Crabgrass plant response rating (crabgrass; [10])
1: Plant response rating, Velvetleaf (velvetleaf; [8])
9: Plant response rating, Blackgrass (blackgrass; [5]) | Plant response rating, Blackgrass (blackgrass; [8]) | Blackgrass plant response rating (blackgrass; [12]) | Plant response rating, Giant foxtail (giant foxtail; [11]) | Plant response rating, Giant foxtail (giant foxtail; [5]) | Giant foxtail plant response rating (giant foxtail; [6]) | Giant foxtail plant response rating (giant foxtail; [13]) | Bedstraw plant response rating (bedstraw; Rate 500 g/ha) | Crabgrass plant response rating (crabgrass; [6]) | Plant response rating, Crabgrass (crabgrass; [7])
4: B. signalgrass plant response rating (surinam grass; [12]) | Corn plant response rating (corn; [9]) | Wheat plant response rating (wheat; [9]) | Soybean plant response rating (soybean; [6]) | Velvetleaf plant response rating (velvetleaf; [6]) | Plant response rating, Redroot pigweed (pigweed; [7]) | Plant response rating, Sugarbeets (sugar beet; [8]) | Plant response rating, Crabgrass (crabgrass; [11])
5: B. signalgrass plant response rating (surinam grass; [6]) | Wild oats plant response rating (wild oat; [9])
8: Corn plant response rating (corn; [10]) | Wild oats plant response rating (wild oat; [10]) | Plant response rating, Bedstraw (bedstraw; Rate 250 g/ha) | Rape plant response rating (rape; [10]) | Sugarbeets plant response rating (sugar beet; [9]) | Sugarbeets plant response rating (sugar beet; [10]) | Plant response rating, Crabgrass (crabgrass; [5])
6: Plant response rating, Blackgrass (blackgrass; [7]) | Plant response rating, Bedstraw (bedstraw; Rate 125 g/ha) | Bedstraw plant response rating (bedstraw; Rate 62 g/ha) | Rape plant response rating (rape; [9]) | Plant response rating, Redroot pigweed (pigweed; [8]) | Sugarbeets plant response rating (sugar beet; [6])
2: Plant response rating, B. signalgrass (surinam grass; [8]) | Plant response rating, Blackgrass (blackgrass; [11]) | Plant response rating, Corn (corn; [8]) | Wheat plant response rating (wheat; [6]) | Plant response rating, Nutsedge (purple nutsedge; [5]) | Plant response rating, Wild oats (wild oat; [8]) | Rape plant response rating (rape; [6]) | Plant response rating, Sugarbeets (sugar beet; [7])
3: Plant response rating, Soybean (soybean; [5]) | Nutsedge plant response rating (purple nutsedge; [6]) | Wild oats plant response rating (wild oat; [6]) | Crabgrass plant response rating (crabgrass; [13]) | Cocklebur plant response rating (cocklebur; [6])

From patent US6737383B1, “Herbicidal oxadiazolidines” (priority 1999, dated 2004)
